{
  "source": "patent US20100189798A1",
  "about": "“CONTROL OF ERWINIA AMYLOVORA WITH VINYLGLYCINES AND BACTERIA THAT PRODUCE VINYLGLYCINES” (The State of Oregon acting by and through the State Board …, priority 2009, published 2010)",
  "key": {"[1]": {"conditions": "as described in U.S. patent application Ser. No. 12/567,590; cited from earlier work"}, "seeds of grassy weeds": {"tested_on": "seeds of grassy weeds", "conditions": "as disclosed in U.S. patent application Ser. No. 12/567,590; cited from earlier work"}, "Erwinia amylovora": {"tested_on": "Erwinia amylovora", "test": "Erwinia bioassay: culture filtrates or test solutions in agar well, zone of inhibition", "assay_type": "cell-based", "conditions": "300 μL per well, 28° C., 48 hours", "procedure": "Assays of Culture Filtrates, Live Bacteria, and FVG-Analogs for Antibiosis Activity against Erwinia amylovora and Other Bacterial Species and Strains: The potential antibiosis activities of various P. fluorescens isolates, their culture filtrates, and the FVG analogs prepared as described above were tested against Erwinia amylovora and a number of other bacterial species and strains listed in Table 4. For this purpose, cryovial stocks of the test organisms (including P. fluorescens lines from the stocks described above) were prepared from bacterial cultures grown in LB liquid medium. For this specific experimental purpose, aliquots of these cultures were stored in cryovials at −80° C. in LB medium containing glycerol at a final concentration of 15% (v/v).\nBacterial lawns of test organisms were prepared from cells grown by inoculating 10 μL of the 15% glycerol stocks into 5 mL of liquid LB Medium. The cells were allowed to multiply overnight at 28° C. with shaking (200 rpm). The resulting bacterial suspension was adjusted with water to an optical density of 0.2 at 600 nm (Spectronic® 20 Spectrophotometer; Milton Roy Co., Rochester N.Y.). 300 μL aliquots of the diluted suspension were spread onto the agar surfaces of Petri plates (100×15 mm) containing […] of 925 Minimal Medium (prepared and amended as described below). […]"}},
  "data": [
    {"smiles": "NC(C=CONC=O)C(=O)O", "note": "(stereo not shown) [FVG, 2-amino-4-formylaminooxybut-3-enoic acid]", "values": [
      {"measurement": "Solubility in organic solvents (in words)", "setting": "[1]", "value": "insoluble or sparingly soluble in organic solvents"},
      {"measurement": "Germination arrest in the seeds of grassy weeds (in words)", "setting": "seeds of grassy weeds", "value": "ability to produce germination arrest"}
    ]},
    {"smiles": "NOCC(=O)O", "note": "[AOA, 2-aminooxyacetic acid]", "values": [
      {"measurement": "Growth inhibition of E. amylovora (in words)", "setting": "Erwinia amylovora; AOA solution, pH 6.4", "value": "effective growth inhibitor"}
    ]},
    {"smiles": "NCCOC=CC(N)C(=O)O", "note": "(stereo not shown) [AVG, 2-amino-4-aminoethoxybut-3-enoic acid]", "values": [
      {"measurement": "Inhibitory effect on growth of E. amylovora (in words)", "setting": "Erwinia amylovora; commercial sample of pure AVG-HCl, 3 mM", "value": "inhibitory effect of AVG on E. amylovora has subsequently been confirmed"}
    ]}
  ]
}
